# Assay results published in patent US20090281142A1, “THIAZOLE DERIVATIVE” (ASTELLAS PHARMA INC., priority 2005, published 2009).
# How the values were obtained:
# [1] = target: T1, recombinant human liver GK (GST-hGK2) (Homo sapiens, UniProt P35557); experiment: Measurement of GK activation; format: biochemical; conditions: 10 min; 10 μM test agent, 5 mM glucose, increase of absorbance (340 nm) in first 10 minutes relative to DMSO control
# T1 construct: cloning of ORF (open reading frame) was carried out by the following procedure based on AK122876.1; made in house; host or cells: E. coli
# T1 sequence (P35557 1-466 isoform P35557-2): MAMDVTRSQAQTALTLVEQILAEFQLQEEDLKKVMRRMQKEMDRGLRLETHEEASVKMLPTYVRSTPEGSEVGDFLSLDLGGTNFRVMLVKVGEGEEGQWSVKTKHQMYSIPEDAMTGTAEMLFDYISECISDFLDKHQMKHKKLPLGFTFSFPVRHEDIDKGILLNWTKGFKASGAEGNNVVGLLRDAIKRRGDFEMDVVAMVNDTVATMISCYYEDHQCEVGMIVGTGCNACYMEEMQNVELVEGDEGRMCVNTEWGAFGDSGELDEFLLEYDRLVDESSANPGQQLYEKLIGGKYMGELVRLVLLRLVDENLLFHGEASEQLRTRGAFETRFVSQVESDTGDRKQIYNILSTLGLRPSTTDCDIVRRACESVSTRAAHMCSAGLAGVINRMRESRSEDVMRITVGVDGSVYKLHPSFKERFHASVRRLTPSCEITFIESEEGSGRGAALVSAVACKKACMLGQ
# Procedure: Measurement of the GK activation by test agents was carried out in accordance with the method described in Science 301: 370-373, 2003, and by partially modifying this. The GK activity was measured as a change in absorbance based on the amount of NADPH which is converted from NADP (nicotinamide adenine dinucleotide phosphate) when glucose 6-phosphate produced by GK using glucose as the substrate is […] glucose-6-phosphate dehydrogenase.
# Regarding the recombinant human liver GK (GST-hGK2) to be used in this assay, it was used by expressing as GST (glutathione S transferase)-fusion protein in E. coli and purifying by a Glutathione Sepharose column.
# Regarding the sequence of glucokinase isoform 2, cloning of ORF (open reading frame) was carried out by the following procedure based on AK122876.1 (accession number). Using pME18S-FL3-Glucokinase isoform 2 as the template, PCR (polymerase chain reaction) was carried out using 5′-[…]-3′(SEQ ID NO:1) as the 5′ primer and 5′-[…]-3′ (SEQ ID NO:2) as the 3′ primer, and the PCR product was TA-cloned into pGEM-T easy vector. The sequence of this clone was confirmed by carrying out its sequencing. Thereafter, a fragment digested with EcoRI and XhoI was ligated to a vector pGEX-5X-1 digested in the same manner to prepare pGEX-human Glucokinase 2.
# Regarding the enzyme reaction, the measurement was carried out at 27° C. using a 96 well flat bottom plate. As the enzyme mixed liquid, 25 mM HEPES pH 7.4; 25 mM KCl; 2 mM MgCl2; 1 mM ATP; 0.1% BSA; 1 mM DTT; 0.8 mM NADP; 2.5 U/ml glucose-6-phosphate dehydrogenase; GST-hGK2 (all in final concentration, however, the amount of GST-hGK2 was adjusted in such a manner that increase of absorbance of the DMSO control in 10 minutes (ΔOD) becomes about 0.12) was prepared. The enzyme mixed liquid was dispensed in 89 μl portions into the aforementioned plate, and a test agent dissolved in DMSO or the DMSO control was added thereto in 1 μl portions. Subsequently, glucose (5 mM in final concentration) was added as the substrate solution in 10 μl portions and the reaction was started at 27° C.
# After commencement of the reaction, the absorbance was measured at a wavelength of 340 nm for 15 minutes at intervals of about 30 seconds, and the GK activation of each compound was calculated from the increase of absorbance during the first 10 minutes (ΔOD). Index of the GK activation of each test agent was calculated from the following formula as the GK activation (%).
# GK activation (%)=[(ΔODTest)−(ΔODCont)]/(ΔODCont)×100
# ΔODTest: ΔOD at 10 μM test agent
# ΔODCont: ΔOD of DMSO control
# C57BL6 mice = experiment: Hypoglycemic action in C57BL6 mice; format: in vivo; conditions: 10 mg/kg oral, 1 hour after administration, freely ingesting C57BL6 mice
# Procedure: Body weights of freely ingesting C57BL6 mice (N=5) were measured. Each test compound was dissolved in Cremophor (registered trademark) solvent (Cremophor:DMSO:Water 5:5:90, v/v/v) to a concentration of 1 mg/ml. To each mouse was orally administered 10 ml/kg of the agent liquid (corresponds to the test compound of 10 mg/kg) or 10 ml/kg of the solvent control. Just before the administration of the test compound, about 60 μl of blood was collected from the venous plexus of the fundus of the eye using a capillary. Blood was collected in the same manner 1 or 4 hours after the administration of the test compound. Blood plasma was separated from the thus collected blood to measure the blood glucose level. The blood glucose level after 1 or 4 hours of the administration of the test compound was compared with the blood glucose level of the solvent control group at the same period of time.
# ICR mice = experiment: Action upon high blood glucose level after oral glucose loading in ICR mice; format: in vivo; conditions: 3 mg/kg oral, fasted ICR mice, AUC of blood glucose from administration until 2 hours after oral glucose loading (2 g/kg) vs solvent control
# Procedure: After overnight fasting, body weights of ICR mice (N=5) were measured. Each test compound was dissolved in Cremophor solvent (Cremophor:DMSO:Water 5:5:90, v/v/v) to a concentration of 0.3 mg/ml. To each mouse was orally administered 10 ml/kg of the agent liquid (corresponds to the test compound of 3 mg/kg) or 10 ml/kg of the solvent control. Just before the administration of the test compound, about 60 μl of blood was collected from the venous plexus of the fundus of the eye using a capillary. After 30 minutes of the administration of the test compound, 200 mg/ml of glucose aqueous solution was orally administered at a dose of 10 ml/kg (corresponds to 2 g/kg). Just before the administration of glucose, about 60 μl of blood was collected from the venous plexus of the fundus of the eye using a capillary. Blood was collected in the same manner after 0.5, 1 and 2 hours of the glucose administration. Blood plasma was separated from the thus collected blood to measure the blood glucose level. AUC of the blood glucose level after the administration of the test compound until 2 hours after the glucose loading was compared with AUC of the solvent control group within the same period of time.
# [2] = system: db/db (C57BL/KsJ-db/db) mice; experiment: Action upon high blood glucose level after oral glucose loading in db/db mice; format: in vivo; conditions: 10 mg/kg oral, fasted db/db mice, from administration until 2 hours after oral glucose loading (2 g/kg)
# Procedure: After overnight fasting, body weights of db/db (C57BL/KsJ-db/db) mice (N=5) were measured. Each test compound was dissolved in Cremophor solvent (Cremophor:DMSO:Water 5:5:90, v/v/v) to a concentration of 1 mg/ml. To each db/db mouse was orally administered 10 ml/kg of the agent liquid (corresponds to the test compound of 10 mg/kg) or 10 ml/kg of the solvent control. Just before the administration of the test compound, about 60 μl of blood was collected from the venous plexus of the fundus of the eye using a capillary. After 30 minutes of the administration of the GK activator, 200 mg/ml of glucose aqueous solution was orally administered at a dose of 10 ml/kg (corresponds to 2 g/kg). Just before the administration of glucose, about 60 μl of blood was collected from the venous plexus of the fundus of the eye using a capillary. Blood was collected in the same manner after 0.5, 1 and 2 hours of the glucose administration. Blood plasma was separated from the thus collected blood to measure the blood glucose level. AUC of the blood glucose level after the administration of the test compound until 2 hours after the glucose loading was compared with AUC of the solvent control group within the same period of time.
activation at 10 µM [1],SMILES,blood glucose level lowered in comparison with the solvent control group (C57BL6 mice),Blood glucose lowering ratio (%) (ICR mice),AUC of the blood glucose level lowered in comparison with AUC of the solvent control group [2]
263%,"CS(=O)(=O)c1ccc([C@@H](CC2CCCC2)C(=O)Nc2nc(C(O)CO)cs2)cc1 (stereo partly drawn) [Ex 5, (2R)-3-cyclopentyl-N-[4-(1,2-dihydroxyethyl)-1,3-thiazol-2-yl]-2-[4-(methylsulfonyl)phenyl]propanamide]",,,
299%,"CS(=O)(=O)c1ccc(/C(=C\C2CCCC2)C(=O)Nc2nc(C(O)CO)cs2)cc1 (stereo not drawn) [Ex 6, (2E)-3-cyclopentyl-N-[4-(1,2-dihydroxyethyl)-1,3-thiazol-2-yl]-2-[4-(methylsulfonyl)phenyl]acrylamide]",22%,,
293%,"O=C(Nc1nc([C@H](O)CO)cs1)/C(=C/C1CCCC1)c1ccc(S(=O)(=O)C2CC2)cc1 [Ex 13, (2E)-3-cyclopentyl-2-[4-(cyclopropylsulfonyl)phenyl]-N-{4-[(1S)-1,2-dihydroxyethyl]-1,3-thiazol-2-yl}acrylamide]",,19%,
239%,"CC1(C)OCC(c2csc(NC(=O)/C(=C/C3CCCC3)c3ccc(S(C)(=O)=O)cc3)n2)O1 (stereo not drawn) [Ex 38, (2E)-3-cyclopentyl-N-[4-(2,2-dimethyl-1,3-dioxolan-4-yl)-1,3-thiazol-2-yl]-2-[4-(methylsulfonyl)phenyl]acrylamide]",,,
283%,CC(=O)OCC(O)c1csc(NC(=O)/C(=C/C2CCCC2)c2ccc(S(C)(=O)=O)cc2)n1 (stereo not drawn) [Ex 44],,,
249%,"O=C(Nc1nc(C(O)CO)cs1)/C(=C/C1CCCC1)c1ccc(S(=O)(=O)C2CC2)cc1 (stereo not drawn) [Ex 45, (2E)-3-cyclopentyl-2-[4-(cyclopropylsulfonyl)phenyl]-N-[4-(1,2-dihydroxyethyl)-1,3-thiazol-2-yl]acrylamide]",,23%,39%
227%,"O=C(Nc1nc(C(O)CO)cs1)/C(=C/C1CCCC1)c1ccc(S(=O)(=O)C2CCC2)cc1 (stereo not drawn) [Ex 62, (2E)-2-[4-(cyclobutylsulfonyl)phenyl]-3-cyclopentyl-N-[4-(1,2-dihydroxyethyl)-1,3-thiazol-2-yl]acrylamide]",,19%,
241%,"CC(O)(CO)c1csc(NC(=O)/C(=C/C2CCCC2)c2ccc(S(=O)(=O)C3CC3)cc2)n1 (stereo not drawn) [Ex 63, (2E)-3-cyclopentyl-2-[4-(cyclopropylsulfonyl)phenyl]-N-[4-(1,2-dihydroxy-1-methylethyl)-1,3-thiazol-2-yl]acrylamide]",,35%,
240%,O=C(Nc1nc(C(O)CCO)cs1)/C(=C/C1CCCC1)c1ccc(S(=O)(=O)C2CC2)cc1 (stereo not drawn) [Ex 71],,22%,
217%,"O=C(Nc1nc(C(=O)CO)cs1)/C(=C/C1CCCC1)c1ccc(S(=O)(=O)C2CC2)cc1 [Ex 77, (2E)-3-cyclopentyl-2-[4-(cyclopropylsulfonyl)phenyl]-N-(4-glycoloyl-1,3-thiazol-2-yl)acrylamide]",,18%,

# Further lines, the molecule ahead of its results:
SMILES,activation at 10 µM [1],blood glucose level lowered in comparison with the solvent control group (C57BL6 mice),Blood glucose lowering ratio (%) (ICR mice),AUC of the blood glucose level lowered in comparison with AUC of the solvent control group [2]
"O=C(Nc1nc(C(O)CO)cs1)C(CC1CCCC1)c1ccc(S(=O)(=O)C(F)(F)F)cc1 (stereo not drawn) [Ex 7, 3-cyclopentyl-N-[4-(1,2-dihydroxyethyl)-1,3-thiazol-2-yl]-2-{4-[(trifluoromethyl)sulfonyl]phenyl}propanamide]",214%,,,
"CC1(C)OCC(c2csc(NC(=O)/C(=C/C3CCCC3)c3ccc(S(C)(=O)=O)c(Cl)c3)n2)O1 (stereo not drawn) [Ex 10, (2E)-2-[3-chloro-4-(methylsulfonyl)phenyl]-3-cyclopentyl-N-[4-(2,2-dimethyl-1,3-dioxolan-4-yl)-1,3-thiazol-2-yl]acrylamide]",294%,,,
CS(=O)(=O)c1ccc([C@@H](CC2CCCC2)C(=O)Nc2nc(C(O)CO)c(Cl)s2)cc1 (stereo partly drawn) [Ex 49],273%,,,
O=C(Nc1nc(C(O)CO)cs1)[C@H](CC1CCCC1)c1ccc(S(=O)(=O)C2CC2)cc1 (stereo partly drawn) [Ex 66],267%,,,
"O=C(Nc1nc(CC(CO)CO)cs1)/C(=C/C1CCCC1)c1ccc(S(=O)(=O)C2CC2)cc1 [Ex 70, (2E)-3-cyclopentyl-2-[4-(cyclopropylsulfonyl)phenyl]-N-{4-[3-hydroxy-2-(hydroxymethyl)propyl]-1,3-thiazol-2-yl} acrylamide]",244%,,,
"CC(O)(CO)c1csc(NC(=O)/C(=C/C2CCCC2)c2ccc(S(=O)(=O)C3CCC3)cc2)n1 (stereo not drawn) [Ex 73, (2E)-2-[4-(cyclobutylsulfonyl)phenyl]-3-cyclopentyl-N-[4-(1,2-dihydroxy-1-methylethyl)-1,3-thiazol-2-yl]acrylamide]",235%,,27%,
"CC(O)(CO)c1csc(NC(=O)[C@H](CC2CCCC2)c2ccc(S(=O)(=O)C3CC3)cc2)n1 (stereo partly drawn) [Ex 74, (2R)-3-cyclopentyl-2-[4-(cyclopropylsulfonyl)phenyl]-N-[4-(1,2-dihydroxy-1-methylethyl)-1,3-thiazol-2-yl]propanamide]",260%,,23%,
